From ChEMBL document CHEMBL3045793, “The synthesis, anti-inflammatory and antimicrobial activity evaluation of novel thioanalogs of 3,4-dihydrothiopyrimidin-2(1H)-one derivatives of N-aryl urea” (2012)
≈ marks a conversion by molar mass, not a printed value. Calls of active or inactive are those of the source. The rule behind the calls is not given here.

Assays:
Candida albicans [1] = assay: Antifungal activity against Candida albicans by agar well diffusion method; assay type: functional
Salmonella typhimurium [2] = assay: Antibacterial activity against Salmonella enterica subsp. enterica serovar Typhimurium by agar well diffusion method; assay type: functional
THP-1 [3] = assay: Anti-inflammatory activity in Homo sapiens (human) THP1 cells assessed as inhibition of LPS-induced TNF-alpha production preincubated at 10 uM for 30 min before LPS treatment measured after 24 hr by ELISA; assay type: functional
THP-1 [4] = assay: Anti-inflammatory activity in Homo sapiens (human) THP1 cells assessed as inhibition of LPS-induced IL-6 production preincubated at 10 uM for 30 min before LPS treatment measured after 24 hr by ELISA; assay type: functional
Aspergillus flavus [5] = assay: Antifungal activity against Aspergillus flavus by agar well diffusion method; assay type: functional
Bacillus subtilis [6] = assay: Antibacterial activity against Bacillus subtilis by agar well diffusion method; assay type: functional
Staphylococcus aureus [7] = assay: Antibacterial activity against Staphylococcus aureus by agar well diffusion method; assay type: functional
Escherichia coli [8] = assay: Antibacterial activity against Escherichia coli by agar well diffusion method; assay type: functional
Fusarium solani [9] = assay: Antifungal activity against Fusarium solani by agar well diffusion method; assay type: functional
Aspergillus niger [10] = assay: Antifungal activity against Aspergillus niger by agar well diffusion method; assay type: functional
Aspergillus flavus [11] = assay: Antifungal activity against Aspergillus flavus up to 200 ug/ml by agar well diffusion method; assay type: functional, organism-based
Fusarium solani [12] = assay: Antifungal activity against Fusarium solani up to 200 ug/ml by agar well diffusion method; assay type: functional, organism-based
Escherichia coli [13] = assay: Antibacterial activity against Escherichia coli up to 200 ug/ml by agar well diffusion method; assay type: functional, organism-based
Candida albicans [14] = assay: Antifungal activity against Candida albicans up to 200 ug/ml by agar well diffusion method; assay type: functional, organism-based
Staphylococcus aureus [15] = assay: Antibacterial activity against Staphylococcus aureus up to 200 ug/ml by agar well diffusion method; assay type: functional, organism-based
Bacillus subtilis [16] = assay: Antibacterial activity against Bacillus subtilis up to 200 ug/ml by agar well diffusion method; assay type: functional, organism-based
Aspergillus niger [17] = assay: Antifungal activity against Aspergillus niger up to 200 ug/ml by agar well diffusion method; assay type: functional, organism-based
Salmonella typhimurium [18] = assay: Antibacterial activity against Salmonella enterica subsp. enterica serovar Typhimurium up to 200 ug/ml by agar well diffusion method; assay type: functional, organism-based
THP-1 [19] = assay: Anti-inflammatory activity in Homo sapiens (human) THP1 cells assessed as inhibition of LPS-induced TNF-alpha production preincubated at 1 uM for 30 min before LPS treatment measured after 24 hr by ELISA; assay type: functional
THP-1 [20] = assay: Anti-inflammatory activity in Homo sapiens (human) THP1 cells assessed as inhibition of LPS-induced IL-6 production preincubated at 1 uM for 30 min before LPS treatment measured after 24 hr by ELISA; assay type: functional

Row | SMILES | MIC (Candida albicans [1]) [µg/mL] | MIC (Salmonella typhimurium [2]) [µg/mL] | MIC (Aspergillus flavus [5]) [µg/mL] | MIC (Bacillus subtilis [6]) [µg/mL] | MIC (Staphylococcus aureus [7]) [µg/mL] | MIC (Escherichia coli [8]) [µg/mL] | MIC (Fusarium solani [9]) [µg/mL] | MIC (Aspergillus niger [10]) [µg/mL] | inhibition at 10 µM (THP-1 [3]) [%] | inhibition at 10 µM (THP-1 [4]) [%] | Activity (Aspergillus flavus [11]) | Activity (Fusarium solani [12]) | Activity (Escherichia coli [13]) | Activity (Candida albicans [14]) | Activity (Staphylococcus aureus [15]) | Activity (Bacillus subtilis [16]) | Activity (Aspergillus niger [17]) | Activity (Salmonella typhimurium [18]) | inhibition at 1 µM (THP-1 [19]) [%] | inhibition at 1 µM (THP-1 [20]) [%]
1 | CCOC(=O)C1=C(C)NC(=S)NC1c1ccc(NC(=O)Nc2ccccc2Oc2ccccc2)cc1 (stereo not drawn) | 40 (≈ 79.6 µM) | 65 (≈ 129 µM) | 35 (≈ 69.6 µM) | 60 (≈ 119 µM) | 55 (≈ 109 µM) | 85 (≈ 169 µM) | 45 (≈ 89.5 µM) | 60 (≈ 119 µM) | 0 | 42 |  |  |  |  |  |  |  |  |  | 
2 | CCOC(=O)C1=C(C)NC(=S)NC1c1ccc(NC(=S)Nc2cc(F)cc(F)c2)cc1 (stereo not drawn) |  | 90 (≈ 195 µM) |  | 90 (≈ 195 µM) | 65 (≈ 141 µM) |  |  | 85 (≈ 184 µM) | 55 | 82 | inactive | inactive | inactive | inactive |  |  |  |  |  | 
3 | CCOC(=O)C1=C(C)NC(=S)NC1c1ccc(NC(=S)Nc2ccc(C)c(C)c2)cc1 (stereo not drawn) |  |  |  |  |  |  |  |  | 0 | 8 | inactive | inactive | inactive | inactive | inactive | inactive | inactive | inactive |  | 
4 | CCOC(=O)C1=C(C)NC(=S)NC1c1ccc(NC(=S)Nc2ccc(C(F)(F)F)cc2Cl)cc1 (stereo not drawn) | 50 (≈ 94.5 µM) | 55 (≈ 104 µM) | 60 (≈ 113 µM) | 55 (≈ 104 µM) | 90 (≈ 170 µM) | 65 (≈ 123 µM) | 90 (≈ 170 µM) | 55 (≈ 104 µM) | 55 | 68 |  |  |  |  |  |  |  |  |  | 
5 | CCOC(=O)C1=C(C)NC(=S)NC1c1ccc(NC(=S)Nc2cc(C(F)(F)F)ccc2Cl)cc1 (stereo not drawn) | 85 (≈ 161 µM) | 90 (≈ 170 µM) |  | 85 (≈ 161 µM) | 90 (≈ 170 µM) | 80 (≈ 151 µM) |  | 90 (≈ 170 µM) | 78 | 96 | inactive | inactive |  |  |  |  |  |  |  | 
6 | C[C@@H]1C[C@H]2[C@@H]3CCC4=CC(=O)C=C[C@]4(C)[C@@]3(F)[C@@H](O)C[C@]2(C)[C@@]1(O)C(=O)CO [DEXAMETHASONE] |  |  |  |  |  |  |  |  |  |  |  |  |  |  |  |  |  |  | 71 | 84
7 | CCOC(=O)C1=C(C)NC(=S)NC1c1ccc(NC(=S)Nc2c(F)cccc2Cl)cc1 (stereo not drawn) | 65 (≈ 136 µM) | 60 (≈ 125 µM) |  | 80 (≈ 167 µM) | 60 (≈ 125 µM) | 85 (≈ 177 µM) |  | 85 (≈ 177 µM) | 42 | 56 | inactive | inactive |  |  |  |  |  |  |  | 
8 | CCOC(=O)C1=C(C)NC(=S)NC1c1ccc(NC(=S)Nc2ccc(F)c(C)c2)cc1 (stereo not drawn) | 95 (≈ 207 µM) |  |  |  | 80 (≈ 174 µM) |  | 95 (≈ 207 µM) |  | 0 | 27 | inactive |  | inactive |  |  | inactive | inactive | inactive |  | 
9 | CCOC(=O)C1=C(C)NC(=S)NC1c1ccc(NC(=S)Nc2c(C)cccc2F)cc1 (stereo not drawn) | 50 (≈ 109 µM) | 90 (≈ 196 µM) | 60 (≈ 131 µM) |  | 90 (≈ 196 µM) | 70 (≈ 153 µM) | 65 (≈ 142 µM) | 55 (≈ 120 µM) | 0 | 16 |  |  |  |  |  | inactive |  |  |  | 

Further lines, with some results ahead:

Row | MIC (Candida albicans [1]) [µg/mL] | MIC (Salmonella typhimurium [2]) [µg/mL] | MIC (Aspergillus flavus [5]) [µg/mL] | MIC (Bacillus subtilis [6]) [µg/mL] | MIC (Staphylococcus aureus [7]) [µg/mL] | MIC (Escherichia coli [8]) [µg/mL] | MIC (Fusarium solani [9]) [µg/mL] | MIC (Aspergillus niger [10]) [µg/mL] | SMILES | inhibition at 10 µM (THP-1 [3]) [%] | inhibition at 10 µM (THP-1 [4]) [%] | Activity (Aspergillus flavus [11]) | Activity (Fusarium solani [12]) | Activity (Escherichia coli [13]) | Activity (Candida albicans [14]) | Activity (Staphylococcus aureus [15]) | Activity (Bacillus subtilis [16]) | Activity (Aspergillus niger [17]) | Activity (Salmonella typhimurium [18]) | inhibition at 1 µM (THP-1 [19]) [%] | inhibition at 1 µM (THP-1 [20]) [%]
10 |  | 25 (≈ 54.8 µM) |  | 40 (≈ 87.6 µM) | 10 (≈ 21.9 µM) | 10 (≈ 21.9 µM) |  |  | CCOC(=O)C1=C(C)NC(=S)NC1c1ccc(NC(=S)Nc2ccc(OC)cc2)cc1 (stereo not drawn) | 0 | 48 |  |  |  |  |  |  |  |  |  | 
11 | 10 (≈ 22.5 µM) | 15 (≈ 33.7 µM) | 15 (≈ 33.7 µM) | 25 (≈ 56.2 µM) | 10 (≈ 22.5 µM) | 10 (≈ 22.5 µM) | 15 (≈ 33.7 µM) | 10 (≈ 22.5 µM) | CCOC(=O)C1=C(C)NC(=S)NC1c1ccc(NC(=S)Nc2ccccc2F)cc1 (stereo not drawn) | 0 | 22 |  |  |  |  |  |  |  |  |  | 
12 | 10 (≈ 19.6 µM) | 10 (≈ 19.6 µM) | 15 (≈ 29.4 µM) | 20 (≈ 39.2 µM) | 45 (≈ 88.1 µM) | 35 (≈ 68.6 µM) | 10 (≈ 19.6 µM) | 30 (≈ 58.8 µM) | CCOC(=O)C1=C(C)NC(=S)NC1c1ccc(NC(=S)Nc2ccccc2OC(F)(F)F)cc1 (stereo not drawn) | 27 | 54 |  |  |  |  |  |  |  |  |  | 
13 | 10 (≈ 20.2 µM) | 30 (≈ 60.7 µM) | 15 (≈ 30.3 µM) | 15 (≈ 30.3 µM) | 10 (≈ 20.2 µM) | 10 (≈ 20.2 µM) | 10 (≈ 20.2 µM) | 10 (≈ 20.2 µM) | CCOC(=O)C1=C(C)NC(=S)NC1c1ccc(NC(=S)Nc2ccc(C(F)(F)F)cc2)cc1 (stereo not drawn) | 8 | 48 |  |  |  |  |  |  |  |  |  | 
